From patent publication US9808016B2, “Pesticide composition for shortening the virus lethal time” (priority 2012, dated 2017)

Tests used:
Spodoptera litura [1] = details: for synergistic effects: chemical pesticide combined with the virus, compared with the pesticide alone; for LC50: 3 days after the treatment, NPV 5.5 × 10^5 PIB/ml where combined
[2] = system: third instar larvae of Spodoptera litura; experiment: Lethal time (LT50/LT90) of third instar larvae treated with nucleopolyhedrovirus and low concentration pesticides; format: in vivo; details: 1.47 ppm of Chlorantraniliprole alone
Excerpt: When treated with 5.5×10^5 PIB/ml of the Spodoptera litura nucleopolyhedrovirus alone, the 50% lethal time (LT50) of the third instar larvae was 9.2 days. But when treated with the formulation of the present invention, 5.5×10^5 PIB/ml of the virus and 1.47 ppm of Chlorantraniliprole, the LT50 was shortened to 1-2 days and the 90% of lethal time (LT90) was achieved by 3-4 days (see Table 1).

[3] = system: third instar larvae of Spodoptera litura; experiment: Cumulative death rates of third instar larvae (FIG. 1); format: in vivo; details: Chlorantraniliprole 7.36 ppm alone
Excerpt: The cumulative death rates of the third instar larvae of Spodoptera litura to 10% of the registered concentration of Chlorantraniliprole (7.36 ppm), nucleopolyhedrovirus (5.5×10^5 PIB/ml) and the mixture of 10% of the registered concentration of Chlorantraniliprole+nucleopolyhedrovirus were shown in FIG. 1. It cost 11 days for the treatment of nucleopolyhedrovirus alone to achieve 100% of death rate. For the treatment of Chlorantraniliprole alone, only 80% of death rate was achieved.

[4] = system: third instar larvae of Spodoptera litura; experiment: Indoor experiments: death rates with seven concentrations of Chlorantraniliprole mixed with nucleopolyhedrovirus (FIG. 2); format: in vivo; details: 40 ppm of Chlorantraniliprole
Experimental: In the indoor experiments, the third instar larvae of Spodoptera litura were treated with the mixtures of seven different concentrations of Chlorantraniliprole with the nucleopolyhedrovirus. […] The synergistic effect of the mixture was more significant especially in the comparison of the low death rate caused by the low concentration of Chlorantraniliprole (see FIG. 2).

Spodoptera litura [5] = experiment: Control rate of Spodoptera litura in Brassica oleracea crops in the field; format: in vivo; details: for Control rate One week after the first treatment / Control rate One week after the second treatment / Control rate One week after the third treatment / Control rate Two weeks after the third treatment / Control rate mean: field, NPV 10^6 PIB/mL, Chlorfluazuron 5 ppm, Chlorantraniliprole 1.47 ppm; for Control rate One week after the first treatment / Control rate One week after the second treatment / Control rate One week after the third treatment / Control rate Two weeks after the third treatment: Brassica oleracea; for Control rate mean: mean of the four assessments
Excerpt: Although mixing of proper pesticides can achieve synergistic effects, the mixture with current concentration for field application equals to twice the amount of pesticides used (If the viruses or pesticides are originally used individually, the mixture would be the same concentration used together). […] The content of Chlorantraniliprole used in the present invention (2% of the current registered concentration, 1.47 ppm) was 50 folds lower than the existing application technique. When mixing with Spodoptera litura nucleopolyhedrovirus, the LT50 of the third instar larvae was less than 2 days and the LT90 was only 3-4 days. […] However, when mixing the low concentration of Chlorantraniliprole with the virus, only 2% of the current registered amount of Chlorantraniliprole was mixed with the virus, 85-95% of control rate was achieved (Table 3).
The concentration of the Spodoptera litura nucleopolyhedrovirus: 10^6 PIB/mL; Chlorfluazuron was 5 ppm (20% of the current registered concentration); Chlorantraniliprole was 1.47 ppm (2% of the current registered concentration)

Row | Structure (SMILES) | synergistic effects (Spodoptera litura [1]) | pest control effect [2] | LC50 (Spodoptera litura [1]) [ppm] | death rate achieved [3] [%] | death rate [4] [%] | Control rate One week after the first treatment (Spodoptera litura [5]) [%] | Control rate One week after the second treatment (Spodoptera litura [5]) [%] | Control rate One week after the third treatment (Spodoptera litura [5]) [%] | Control rate Two weeks after the third treatment (Spodoptera litura [5]) [%] | pest control effects in the field (Spodoptera litura [5]; low concentration (1.47 ppm) administered alone) | Control rate mean (Spodoptera litura [5]) [%]
1 | N#Cc1ccc(CC(=NNC(=O)Nc2ccc(OC(F)(F)F)cc2)c2cccc(C(F)(F)F)c2)cc1 (mixture of isomers) [Metaflumizone] | interfered effects | – | – | – | – | – | – | – | – | – | –
2 | CNC(=O)c1cc(Cl)cc(C)c1NC(=O)c1cc(Br)nn1-c1ncccc1Cl [Chlorantraniliprole] | 4 folds | no pest control effect | 1.36 | 80 | 100 | 31.6 | 22.9 | 77.3 | −5 | no pest control effects | 32
3 | CCOCn1c(-c2ccc(Cl)cc2)c(C#N)c(Br)c1C(F)(F)F [Chlorfenapyr] | – | – | 11.8 | – | – | – | – | – | – | – | –
4 | O=C(NC(=O)c1c(F)cccc1F)Nc1cc(Cl)c(Oc2ncc(C(F)(F)F)cc2Cl)c(Cl)c1 [Chlorfluazuron] | – | – | 7.48 | – | – | −3.2 | −50.3 | 38.6 | 19.2 | – | 1.0
